According to PubChem BioAssay (NCI):
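Where inhibition never reached the appropriate level, the endpoint shown equals the highest concentration tested. Otherwise, values were interpolated linearly from a five-concentration, 48-hour dose response in 96-well plates. The concentration for full growth arrest is given as TGI.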

tested on: U251 CNS; assay: DTP human tumour cell line panel, 48 h

`CCOC(=O)[C@H](C)OC(=O)[C@@](C)(NC(=O)c1ccccc1C(=O)OC)[C@@H]1NC=C(C(=O)OC)CS1` and `Cn1c2ccccc2c(=O)c2cccc(C(=O)NC(CS)C(=O)O)c21` (stereo unspecified) cannot be ordered by TGI: > 100 µM for the first, > 100 µM for the second.

Going from `CC(C)=CCC/C(C)=C/CC/C(C)=C/CC(CO)N(C)CC/C=C(\C)CCC=C(C)C` (stereo unspecified) to `CC(C)C(C/C=C1\CC(CO)(COC(=O)C(C)(C)C)OC1=O)C(C)C` (stereo unspecified), the TGI rises from 14.5 µM to 29.8 µM (2.1-fold).

First: C=C1CC/C=C(\C)CCC[C@H](C)[C@@H](O)[C@@H]2OC(=O)C(=C)[C@@H]2C[C@H]1O
Second: CC(=O)O[C@H]1CC[C@@]2(C)C(=CC[C@H]3[C@@H]4C/C(=C\c5ccc(N(C)C)cc5)[C@H](OC(C)=O)[C@@]4(C)CC[C@@H]32)C1
The TGI of the first is 2.6-fold higher: 50.2 µM for the first, 19.4 µM for the second.

`CCOC(=O)c1sc2c(c1OC(=O)c1ccc(OC)cc1)c(=O)n(-c1ccccc1)c(=S)n2-c1ccccc1` and `O=C(CC(C(=O)c1ccsc1)c1ccccc1)c1ccccc1` (stereo unspecified) cannot be ordered by TGI: > 100 µM for the first, > 100 µM for the second.

`COc1ccc(-c2cc3ccccc3oc2=O)cc1OC` and `CC1CN=C(N(C(=O)Nc2ccc(Cl)c(Cl)c2)c2ccccc2)S1` (stereo unspecified) cannot be ordered by TGI: > 100 µM for the first, > 100 µM for the second.

Going from `COC(=O)NC(C(F)(F)F)(C(F)(F)F)P1(=O)OCCCO1` to `CCOC(=O)NNC(=O)NCCCCNC(=O)NNC(=O)OCC`, the TGI rises from 29.8 µM to > 100 µM.

`CC(C)(C)OC/C=C(/CO)[C@@H]1C=C[C@H](O)C1` and `Nc1ccn([C@H]2CO[C@@H](CO)[C@@H]2O)c(=O)n1` cannot be ordered by TGI: > 100 µM for the first, > 100 µM for the second.

`COC(C)(C)OCCN1CCN(CCN2C3=C(C=C(C(C)=O)C3)Sc3ccccc32)CC1` showed a TGI of 35.2 µM.

tested on: OVCAR-3 ovarian; assay: DTP human tumour cell line panel, 48 h

`O=C(N(O)c1ccccc1Cl)C(O)(c1ccccc1)c1ccccc1` and `O=C(CC(C(=O)c1ccsc1)c1ccccc1)c1ccccc1` (stereo unspecified) cannot be ordered by TGI: > 100 µM for the first, > 100 µM for the second.

`Cn1c2c(c3ccccc31)CCN1C(=O)CN(C(=O)C3CCCCC3)CC21` (stereo unspecified) and `O=C(Cn1c(-c2ccccc2)cc2ccccc21)N1CCCC1` cannot be ordered by TGI: > 100 µM for the first, > 100 µM for the second.

Going from `CCCC(=O)N1CCN(c2ccc3c(c2)OC(C)O3)CC1` (stereo unspecified) to `COC(C)(C)OCCN1CCN(CCN2C3=C(C=C(C(C)=O)C3)Sc3ccccc32)CC1`, the TGI falls from > 100 µM to 45.8 µM.

`CCOC(=O)[C@H](C)OC(=O)[C@@](C)(NC(=O)c1ccccc1C(=O)OC)[C@@H]1NC=C(C(=O)OC)CS1` and `Cn1c2ccccc2c(=O)c2cccc(C(=O)NC(CS)C(=O)O)c21` (stereo unspecified) cannot be ordered by TGI: > 100 µM for the first, > 100 µM for the second.

`CC(C)=CCC/C(C)=C/CC/C(C)=C/CC(CO)N(C)CC/C=C(\C)CCC=C(C)C` (stereo unspecified) and `CC(C)C(C/C=C1\CC(CO)(COC(=O)C(C)(C)C)OC1=O)C(C)C` (stereo unspecified) are within 1.5-fold of each other in TGI: 27.8 µM for the first, 26.4 µM for the second.

First: C=C1CC/C=C(\C)CCC[C@H](C)[C@@H](O)[C@@H]2OC(=O)C(=C)[C@@H]2C[C@H]1O
Second: CC(=O)O[C@H]1CC[C@@]2(C)C(=CC[C@H]3[C@@H]4C/C(=C\c5ccc(N(C)C)cc5)[C@H](OC(C)=O)[C@@]4(C)CC[C@@H]32)C1
The TGI of the first is 1.8-fold lower: 22.6 µM for the first, 41.8 µM for the second.

`CCOC(=O)c1sc2c(c1OC(=O)c1ccc(OC)cc1)c(=O)n(-c1ccccc1)c(=S)n2-c1ccccc1` and `COc1ccc(-c2cc3ccccc3oc2=O)cc1OC` cannot be ordered by TGI: > 100 µM for the first, > 100 µM for the second.

`CC1CN=C(N(C(=O)Nc2ccc(Cl)c(Cl)c2)c2ccccc2)S1` (stereo unspecified) and `Nc1ccn([C@H]2CO[C@@H](CO)[C@@H]2O)c(=O)n1` cannot be ordered by TGI: > 100 µM for the first, > 100 µM for the second.

`COC(=O)NC(C(F)(F)F)(C(F)(F)F)P1(=O)OCCCO1` and `CCOC(=O)NNC(=O)NCCCCNC(=O)NNC(=O)OCC` cannot be ordered by TGI: > 100 µM for the first, > 100 µM for the second.

In the case of `CC(C)(C)OC/C=C(/CO)[C@@H]1C=C[C@H](O)C1`, the TGI is reported as > 100 µM.

tested on: SF-295 CNS; assay: DTP human tumour cell line panel, 48 h

`O=C(N(O)c1ccccc1Cl)C(O)(c1ccccc1)c1ccccc1` and `O=C(CC(C(=O)c1ccsc1)c1ccccc1)c1ccccc1` (stereo unspecified) cannot be ordered by TGI: > 100 µM for the first, > 100 µM for the second.

`Cn1c2c(c3ccccc31)CCN1C(=O)CN(C(=O)C3CCCCC3)CC21` (stereo unspecified) and `O=C(Cn1c(-c2ccccc2)cc2ccccc21)N1CCCC1` cannot be ordered by TGI: > 100 µM for the first, > 100 µM for the second.

First: CCCC(=O)N1CCN(c2ccc3c(c2)OC(C)O3)CC1 (stereo unspecified)
Second: COC(C)(C)OCCN1CCN(CCN2C3=C(C=C(C(C)=O)C3)Sc3ccccc32)CC1
The TGI of the first is higher: > 100 µM for the first, 36.7 µM for the second.

`COC(=O)C1=C(O)c2ccc(Cl)cc2S(=O)(=O)N1C` and `Cn1c2ccccc2c(=O)c2cccc(C(=O)NC(CS)C(=O)O)c21` (stereo unspecified) cannot be ordered by TGI: > 100 µM for the first, > 100 µM for the second.

`CCOC(=O)[C@H](C)OC(=O)[C@@](C)(NC(=O)c1ccccc1C(=O)OC)[C@@H]1NC=C(C(=O)OC)CS1` and `CCOC(=O)c1sc2c(c1OC(=O)c1ccc(OC)cc1)c(=O)n(-c1ccccc1)c(=S)n2-c1ccccc1` cannot be ordered by TGI: > 100 µM for the first, > 100 µM for the second.

`CC(C)=CCC/C(C)=C/CC/C(C)=C/CC(CO)N(C)CC/C=C(\C)CCC=C(C)C` (stereo unspecified) and `CC(C)C(C/C=C1\CC(CO)(COC(=O)C(C)(C)C)OC1=O)C(C)C` (stereo unspecified) are within 1.5-fold of each other in TGI: 19.9 µM for the first, 18.1 µM for the second.

Going from `C=C1CC/C=C(\C)CCC[C@H](C)[C@@H](O)[C@@H]2OC(=O)C(=C)[C@@H]2C[C@H]1O` to `CC(=O)O[C@H]1CC[C@@]2(C)C(=CC[C@H]3[C@@H]4C/C(=C\c5ccc(N(C)C)cc5)[C@H](OC(C)=O)[C@@]4(C)CC[C@@H]32)C1`, the TGI falls from 32.9 µM to 21 µM (1.6-fold).

`COc1ccc(-c2cc3ccccc3oc2=O)cc1OC` and `CC1CN=C(N(C(=O)Nc2ccc(Cl)c(Cl)c2)c2ccccc2)S1` (stereo unspecified) cannot be ordered by TGI: > 100 µM for the first, > 100 µM for the second.

First: COC(=O)NC(C(F)(F)F)(C(F)(F)F)P1(=O)OCCCO1
Second: CCOC(=O)NNC(=O)NCCCCNC(=O)NNC(=O)OCC
The TGI of the first is lower: 55.3 µM for the first, > 100 µM for the second.

`CC(C)(C)OC/C=C(/CO)[C@@H]1C=C[C@H](O)C1` and `Nc1ccn([C@H]2CO[C@@H](CO)[C@@H]2O)c(=O)n1` cannot be ordered by TGI: > 100 µM for the first, > 100 µM for the second.

tested on: SN12C renal; assay: DTP human tumour cell line panel, 48 h

`O=C(N(O)c1ccccc1Cl)C(O)(c1ccccc1)c1ccccc1` and `O=C(CC(C(=O)c1ccsc1)c1ccccc1)c1ccccc1` (stereo unspecified) cannot be ordered by TGI: > 100 µM for the first, > 100 µM for the second.

`Cn1c2c(c3ccccc31)CCN1C(=O)CN(C(=O)C3CCCCC3)CC21` (stereo unspecified) and `O=C(Cn1c(-c2ccccc2)cc2ccccc21)N1CCCC1` cannot be ordered by TGI: > 100 µM for the first, > 100 µM for the second.

Compared with `CCCC(=O)N1CCN(c2ccc3c(c2)OC(C)O3)CC1` (stereo unspecified), `COC(C)(C)OCCN1CCN(CCN2C3=C(C=C(C(C)=O)C3)Sc3ccccc32)CC1` is lower in TGI: > 100 µM for the first, 69.8 µM for the second.

`COC(=O)C1=C(O)c2ccc(Cl)cc2S(=O)(=O)N1C` and `Cn1c2ccccc2c(=O)c2cccc(C(=O)NC(CS)C(=O)O)c21` (stereo unspecified) cannot be ordered by TGI: > 100 µM for the first, > 100 µM for the second.

`CCOC(=O)[C@H](C)OC(=O)[C@@](C)(NC(=O)c1ccccc1C(=O)OC)[C@@H]1NC=C(C(=O)OC)CS1` and `CCOC(=O)c1sc2c(c1OC(=O)c1ccc(OC)cc1)c(=O)n(-c1ccccc1)c(=S)n2-c1ccccc1` cannot be ordered by TGI: > 100 µM for the first, > 100 µM for the second.

`CC(C)=CCC/C(C)=C/CC/C(C)=C/CC(CO)N(C)CC/C=C(\C)CCC=C(C)C` (stereo unspecified) and `CC(C)C(C/C=C1\CC(CO)(COC(=O)C(C)(C)C)OC1=O)C(C)C` (stereo unspecified) are within 1.5-fold of each other in TGI: 17.4 µM for the first, 19.8 µM for the second.

`C=C1CC/C=C(\C)CCC[C@H](C)[C@@H](O)[C@@H]2OC(=O)C(=C)[C@@H]2C[C@H]1O` and `CC(=O)O[C@H]1CC[C@@]2(C)C(=CC[C@H]3[C@@H]4C/C(=C\c5ccc(N(C)C)cc5)[C@H](OC(C)=O)[C@@]4(C)CC[C@@H]32)C1` are within 1.5-fold of each other in TGI: 42 µM for the first, 37.9 µM for the second.

`COc1ccc(-c2cc3ccccc3oc2=O)cc1OC` and `CC1CN=C(N(C(=O)Nc2ccc(Cl)c(Cl)c2)c2ccccc2)S1` (stereo unspecified) cannot be ordered by TGI: > 100 µM for the first, > 100 µM for the second.

`COC(=O)NC(C(F)(F)F)(C(F)(F)F)P1(=O)OCCCO1` and `CCOC(=O)NNC(=O)NCCCCNC(=O)NNC(=O)OCC` cannot be ordered by TGI: > 100 µM for the first, > 100 µM for the second.

`CC(C)(C)OC/C=C(/CO)[C@@H]1C=C[C@H](O)C1` and `Nc1ccn([C@H]2CO[C@@H](CO)[C@@H]2O)c(=O)n1` cannot be ordered by TGI: > 100 µM for the first, > 100 µM for the second.

tested on: PC-3 prostate; assay: DTP human tumour cell line panel, 48 h

`O=C(N(O)c1ccccc1Cl)C(O)(c1ccccc1)c1ccccc1` and `O=C(Cn1c(-c2ccccc2)cc2ccccc21)N1CCCC1` cannot be ordered by TGI: > 100 µM for the first, > 100 µM for the second.

`Cn1c2c(c3ccccc31)CCN1C(=O)CN(C(=O)C3CCCCC3)CC21` (stereo unspecified) and `Cn1c2ccccc2c(=O)c2cccc(C(=O)NC(CS)C(=O)O)c21` (stereo unspecified) cannot be ordered by TGI: > 100 µM for the first, > 100 µM for the second.

Going from `CCCC(=O)N1CCN(c2ccc3c(c2)OC(C)O3)CC1` (stereo unspecified) to `COC(C)(C)OCCN1CCN(CCN2C3=C(C=C(C(C)=O)C3)Sc3ccccc32)CC1`, the TGI falls from > 100 µM to 72.9 µM.

`COC(=O)C1=C(O)c2ccc(Cl)cc2S(=O)(=O)N1C` and `CC1CN=C(N(C(=O)Nc2ccc(Cl)c(Cl)c2)c2ccccc2)S1` (stereo unspecified) cannot be ordered by TGI: > 100 µM for the first, > 100 µM for the second.

`CCOC(=O)[C@H](C)OC(=O)[C@@](C)(NC(=O)c1ccccc1C(=O)OC)[C@@H]1NC=C(C(=O)OC)CS1` and `CCOC(=O)c1sc2c(c1OC(=O)c1ccc(OC)cc1)c(=O)n(-c1ccccc1)c(=S)n2-c1ccccc1` cannot be ordered by TGI: > 100 µM for the first, > 100 µM for the second.

`CC(C)=CCC/C(C)=C/CC/C(C)=C/CC(CO)N(C)CC/C=C(\C)CCC=C(C)C` (stereo unspecified) and `CC(C)C(C/C=C1\CC(CO)(COC(=O)C(C)(C)C)OC1=O)C(C)C` (stereo unspecified) are within 1.5-fold of each other in TGI: 20.2 µM for the first, 20.9 µM for the second.

First: C=C1CC/C=C(\C)CCC[C@H](C)[C@@H](O)[C@@H]2OC(=O)C(=C)[C@@H]2C[C@H]1O
Second: Nc1ccn([C@H]2CO[C@@H](CO)[C@@H]2O)c(=O)n1
The TGI of the first is lower: 23.1 µM for the first, > 100 µM for the second.

`COC(=O)NC(C(F)(F)F)(C(F)(F)F)P1(=O)OCCCO1` and `CCOC(=O)NNC(=O)NCCCCNC(=O)NNC(=O)OCC` cannot be ordered by TGI: > 100 µM for the first, > 100 µM for the second.

`CC(C)(C)OC/C=C(/CO)[C@@H]1C=C[C@H](O)C1` was tested, and the TGI was > 100 µM.
